Data as given in ChEMBL document CHEMBL2021797, “Synthesis and structure-activity relationship study of antimicrotubule agents phenylahistin derivatives with a didehydropiperazine-2,5-dione structure” (J Med Chem, 2012).
pIC50, pKd: −log10 of the molar value.

How the values were obtained:
HT-29 = assay: Cytotoxicity against human HT-29 cells after 48 hrs using resazurin by microplate fluorometer analysis; type: functional, cell-based; conditions: HT-29, 48 h
HeLa [1] = assay: Induction of cell cycle arrest in human HeLa cells assessed as accumulation at G2/M phase at 30 nM after 18 hrs by propidium iodide based flow cytometric analysis (reference value: 16.2 %); type: functional
HeLa [2] = assay: Induction of cell cycle arrest in human HeLa cells assessed as accumulation at G0/G1 phase at 30 nM after 18 hrs by propidium iodide based flow cytometric analysis (reference value: 43.9 %); type: functional
HeLa [3] = assay: Induction of cell cycle arrest in human HeLa cells assessed as accumulation at S phase at 30 nM after 18 hrs by propidium iodide based flow cytometric analysis (reference value: 39.9 %); type: functional
HeLa [4] = assay: Induction of cell cycle arrest in human HeLa cells assessed as accumulation at G0/G1 phase at 10 nM after 18 hrs by propidium iodide based flow cytometric analysis (reference value: 43.9 %); type: functional
HeLa [5] = assay: Induction of cell cycle arrest in human HeLa cells assessed as accumulation at S phase at 10 nM after 18 hrs by propidium iodide based flow cytometric analysis (reference value: 39.9 %); type: functional
[6] = Binding affinity to bovine tubulin after 1 hr by spectrofluorometric analysis; set-up: species or system Bos taurus
HeLa [7] = assay: Induction of cell cycle arrest in human HeLa cells assessed as accumulation at G2/M phase at 10 nM after 18 hrs by propidium iodide based flow cytometric analysis (reference value: 16.2 %); type: functional
[8] = Inhibition of bovine brain tubulin polymerization by thermostatic spectrophotometer; set-up: species or system Bos taurus
HeLa [9] = assay: Induction of cell cycle arrest in human HeLa cells assessed as accumulation at G0/G1 phase at 3 nM after 18 hrs by propidium iodide based flow cytometric analysis (reference value: 43.9 %); type: functional
HUVEC [10] = assay: Induction of microtubule depolymerization in HUVEC after 30 mins by DAPI staining method; type: cell-based; conditions: Homo sapiens
HeLa [11] = assay: Induction of cell cycle arrest in human HeLa cells assessed as accumulation at G2/M phase at 3 nM after 18 hrs by propidium iodide based flow cytometric analysis (reference value: 16.2 %); type: functional
HUVEC [12] = assay: Cytotoxicity against HUVEC after 48 hrs using resazurin by microplate fluorometer analysis; type: cell-based; conditions: Homo sapiens
HeLa [13] = assay: Induction of cell cycle arrest in human HeLa cells assessed as accumulation at S phase at 3 nM after 18 hrs by propidium iodide based flow cytometric analysis (reference value: 39.9 %); type: functional
DU-145 [14] = assay: Antitumor activity against human DU145 cells xenografted in nu/nu mouse assessed as tumor growth inhibition at […], ip administered on day 1, 3, 5, 8 and […] measured on day 40 relative to control; type: functional; conditions: DU-145, ip, read-out: TGI
DU-145 [15] = assay: Antitumor activity against human DU145 cells xenografted in nu/nu mouse assessed as tumor growth inhibition at 3.75 mg/kg, ip administered on day 1, 3, 5, 8 and […] measured on day 40 relative to control; type: functional; conditions: DU-145, ip, route intraperitoneal, read-out: TGI
HeLa [16] = assay: Induction of cell cycle arrest in human HeLa cells assessed as accumulation at S phase at 100 nM after 18 hrs by propidium iodide based flow cytometric analysis (reference value: 39.9 %); type: functional
Mus musculus = assay: Toxicity in nu/nu mouse assessed as weight loss at 1.25 to 7.5 mg/kg, ip after 40 days; type: organism-based; conditions: in vivo, 960 h
HeLa [17] = assay: Induction of cell cycle arrest in human HeLa cells assessed as accumulation at G2/M phase at 100 nM after 18 hrs by propidium iodide based flow cytometric analysis (reference value: 16.2 %); type: functional
DU-145 [18] = conditions: Homo sapiens
HeLa [19] = assay: Induction of cell cycle arrest in human HeLa cells assessed as accumulation at G0/G1 phase at 100 nM after 18 hrs by propidium iodide based flow cytometric analysis (reference value: 43.9 %); type: functional
DU-145 [20] = assay: Antitumor activity against human DU145 cells xenografted in nu/nu mouse assessed as tumor growth inhibition at 7.5 mg/kg, ip administered on day 1, 3, 5, 8 and […] measured on day 40 relative to control; type: functional; conditions: DU-145, ip, route intraperitoneal, read-out: TGI

COc1cc(/C=c2\[nH]c(=O)/c(=C/c3nc[nH]c3C(C)(C)C)[nH]c2=O)cc(OC)c1
pIC50 (HT-29): 7.34

COc1cc2c(c(OC)c1OC)-c1ccc(OC)c(=O)cc1[C@@H](NC(C)=O)CC2 [COLCHICINE]
Activity (HeLa [1]): 89.9%
Activity (HeLa [2]): 1.3%
Activity (HeLa [3]): 8.9%
Activity (HeLa [4]): 47.5%
Activity (HeLa [5]): 31.5%
pIC50 (HT-29): 7.80
Activity (HeLa [7]): 21%

COc1ccc(/C=C\c2cc(OC)c(OC)c(OC)c2)cc1O [COMBRETASTATIN A4]
pIC50 [8]: 6.26
Activity (HeLa [9]): 34.6%
ED100 (HUVEC [10]): 10 nM
Activity (HeLa [4]): 0.4%
Activity (HeLa [5]): 8.8%
Activity (HeLa [11]): 37.4%
Activity (HeLa [7]): 90.7%
pIC50 (HUVEC [12]): 8.62
Activity (HeLa [13]): 28.1%

CC(C)(C)c1[nH]cnc1/C=c1\[nH]c(=O)/c(=C/c2ccccc2)[nH]c1=O [PLINABULIN]
Activity (HeLa [1]): 55.3%
Activity (HeLa [2]): 4.2%
inhibition in vivo at […] (DU-145 [14]): 29%
pIC50 [8]: 5.88
inhibition in vivo at 3.75 mg/kg (DU-145 [15]): 38.6%
Activity (HeLa [3]): 40.4%
Activity (HeLa [16]): 2.4%
Activity (Mus musculus): Non-toxic
Activity (HeLa [17]): 97.6%
ED100 (HUVEC [10]): 3 nM
TGI (DU-145 [18]): Dose-dependent effect
Activity (HeLa [4]): 44.6%
Activity (HeLa [5]): 37.5%
Activity (HeLa [19]): 0%
pKd [6]: 6.00
Activity (HeLa [7]): 17.9%
inhibition in vivo at 7.5 mg/kg (DU-145 [20]): 58.5%
pIC50 (HUVEC [12]): 7.96
